This note sets out measurements from patent US10813890B2, “Pharmaceutical combination” (Gruenenthal GmbH, priority 2010, dated 2020).

Each structure is given as a SMILES string. Counter-ions that a name gives are not always drawn. Like-named read-outs stand apart in the source and are kept apart here.

The test system of the test is inflamed rat hind paw. The test can be described thus: Randall-Selitto test in rats (carrageenan-induced acute inflammation, mechanical nociceptive threshold). The conditions noted are these: for ED50: Rattus norvegicus, 0.25 h, read-out: ED50 (substance applied alone); for analgesic effect: i.p.; for analgesic effect / timepoint of peak effect: substance applied alone; for timepoint of peak effect: p. appl., timepoint of first measurement.

For the compound `CNC1(c2ccccc2Cl)CCCCC1=O` (racemic) [ketamine hydrochloride, (R,S)-ketamine hydrochloride], the analgesic effect entry is recorded as “dose-dependent analgesic effect” and the “timepoint of peak effect” value is listed as 15 min. Moreover, the ED50 (ip) came out at 20.2 mg/kg.

Regarding `CC12CC3CC(C)(C1)CC(N)(C3)C2` [memantine hydrochloride], the analgesic effect result is “dose-dependent analgesic effect” and the “timepoint of peak effect” value worked out at 15 min. For the same compound, under “ip”, the ED50 came to 19.1 mg/kg.

As to `CC[C@@H](c1cccc(O)c1)[C@@H](C)CN(C)C` [tapentadol hydrochloride], the “timepoint of peak effect” value was 15 min. For the same compound, for the setting “iv”, the ED50 worked out at 1.75 mg/kg.

A word on the ED50: it is the midpoint of the dose-response relation.
